No end group written: not given here.
Key:
[1] = system: homotypic TMD-TMD interaction (ToxR / ctx promoter / β-galactosidase reporter in FHK12 E. coli); experiment: Homotypic ToxR reporter assay (β-galactosidase); type: cell-based; conditions: β-galactosidase Miller units normalized to GpA signal and expression levels; FHK12 E. coli; 3 replicates with >6 measurements each, N in table
Experimental: . Various plasmid constructs for this assay make it possible to monitor both homotypic and heterotypic interactions that are driven by TMD-TMD association (Fig. S1).
We first investigated homotypic interactions because the majority of the TLR family members function as homodimers. […] This ΔTM construct consists of the same maltose binding protein and ToxR domain, but lacks a TMD for proper membrane insertion (Fig. S2). Statistical analysis using the Tukey-Kramer test was performed to analyze any significant differences between all possible pairs of average interaction potentials (Table S2). […] Among the TLRs, no discernable differences in grouping based on statistical analysis at p = 0.05 were indicated as all receptors belonged to multiple groups, except for TLR1, which with the lowest interaction potential among the family of receptors only existed in one group (Table S1).
Figure 2 Toll-like Receptor Transmembrane Domain Homotypic Interactions. (A) The ToxR assay was used to study homotypic interactions of the TLR TMDs. A chimeric protein expressing the TMD of interest was monitored through β-galactosidase activity. In all cases, we saw that the TLRs have interaction potential solely from TMD-TMD interactions. Each TLR TMD interaction measurement analysis was performed on 3 technical replicates with >6 measurements for each replicate. Error bars depict the standard error of the mean (n – Table S1). Western blots staining for MBP were performed to monitor expression levels of the constructs – (B) chimeric maltose binding protein expression, (C) endogenous maltose binding protein expression. All samples were normalized to the GpA signal and expression levels.
Briefly, the ToxR plasmids containing the TMD of interest (200 ng) were transformed into chemically competent FHK12 E. coli (200 µL) by incubating on ice for 30 min, heat shock at 42°C for 90 s, incubation on ice for 2 min, and addition of SOC media (800 µL) followed by incubation with shaking for 1 h at 37°C. This transformation mixture (50 µL) was then spread on LB agar plates containing cholaramphenicol (30 µg/mL) and ampicillin (100 µg/mL) and grown overnight at 37°C. Single colonies were selected from the plates in triplicate and added to 5 mL of LB media containing cholaramphenicol (30 µg/mL), ampicillin (100 µg/mL), and arabinose (0.0025%). These cultures were incubated overnight (16–20 h) with shaking at 37°C. The β-galactosidase activity was monitored using a Beckman Coulter DTX 880 plate-reader. First 5 µL of each culture was plated >6 times in a clear 96-well flat bottom culture plate (Sarstedt) containing 100 µL of Z-buffer/chloroform (1% β-mercaptoethanol, 10% chloroform, 89% Z buffer: […], 10 mM potassium chloride, 1 mM magnesium sulfate, pH 7.0). The cell densities of each well were recorded by measuring the OD595. Bacteria were lysed by the addition of 50 µL Z-buffer/SDS (1.6% sodium dodecyl sulfate w/v in Z-buffer) and shaking at 28°C for 10 min. Enzymatic activity was measured by adding 50 µL of Z-buffer/ortho-Nitrophenyl-β-[…] (ONPG) (0.4% ONPG w/v in Z-buffer) and monitoring the reaction at 405 nm for a period of 20 min at 30 s intervals. Miller units were calculated using the equation: [drawing 1]
Western blotting was performed with antiserum recognizing the maltose-binding protein moiety of the constructs (Abcam). Data were normalized to GpA Miller Units and protein expression levels using ImageJ (NIH) as reported previously.

[2] = system: TLR2 TMD (functional ToxR chimera); experiment: Dominant-negative (heterotypic) ToxR assay, TLR2 as dominant phenotype; type: cell-based; conditions: Miller units normalized to poly-Leu* = 1 and corrected for expression, lower = stronger interaction, N in table
Text: Next, we investigated heterotypic interactions of the TLRs. We specifically studied TLR2, TLR1, and TLR6 because they are cell surface expressed receptors known to form functional heterodimers. To determine the ability of these three cell surface TLRs to have heterotypic interactions within its family, we studied the ability of the TLR1, TLR2, and TLR6 TMDs to interact with the TLR receptors also expressed at the cell surface; namely, TLR1, TLR2, TLR4, TLR5, TLR6, and TLR10. We monitored these interactions using a dominant-negative ToxR assay (Fig. S1B) which works by having a second TMD expressed with a non-functional ToxR* intracellular domain. This ToxR* domain is incapable of binding the ctx promoter making any interactions with this second expressed TMD unable to produce the reporter enzyme. As such, any interaction between the functional ToxR and non-functional ToxR* TMDs will result in a reduction in signal output.
Figure 3 Cell- Surface Toll-like Recptor Heterotypic Interactions. (A) A dominant-negative ToxR assay was used to study heterotypic interactions of the cell-surface TLRs. Two TLR TMDs were encoded in the FHK12 E.coli reporter strain, one with a functional ToxR domain (dominant phenotype) and one with a nonfunctional ToxR* domain (negative phenotype). Interaction between the two different TMDs leads to a reduction in signal from that seen for homotypic interactions. The TMDs for GpA, TLR1, TLR2, and TLR6 were used with the functional ToxR domain while TMDs for poly-Leucine, TMD5, integrin αIIb, TLR1, TLR2, TLR4, TLR5, TLR6, and TLR10 were used with the nonfunctional ToxR* domain. Interactions were most prominent for the TLRs known to have heterotypic interactions – TLR2-TLR1 and TLR2-TLR6. […] We also saw interaction with the same TMD further validating the homotypic interactions. […] Each dominant phenotype was done in 3 technical replicates with each negative phenotype and >6 measurements made for each replicate. Error bars depict the standard error of the mean (n- Tables S3, S5, S7, S9). Western blots staining for MBP were performed to monitor expression levels of the constructs with the upper band being functional ToxR chimeras and the lower band being nonfunctional ToxR* chimeras – (B) GpA, (C) TLR1, (D) TLR2, and (E) TLR6. Significant differences for the same dominant phenotype were determined by use of the Tukey-Kramer test.
For heterotypic interactions one plasmid containing a functional ToxR domain (200 ng) and a second plasmid containing a non-functional ToxR* domain (200 ng) were co-transformed into chemically competent FHK12 E. coli (400 µL) by incubating on ice for 30 min, heat shock at 42°C for 90 s, incubation on ice for 2 min, and addition of SOC media (1600 µL) followed by incubation with shaking for 1 h at 37°C. This transformation mixture (50 µL) was then used to spread LB-agar plates containing cholaramphenicol (30 µg/mL), kanamycin (33 µg/mL), and ampicillin (100 µg/mL) and grown overnight at 37°C. Single colonies were selected from the plates and grown in 5 mL LB media containing cholaramphenicol (30 µg/mL), kanamycin (33 µg/mL), ampicillin (100 µg/mL), and arabinose (0.0025%) overnight (16–20 h) with shaking at 37°C. Analysis of activity was monitored as described in homotypic ToxR assays. Western blotting was done in the same manner as the homotypic ToxR assay with one band appearing for the functional ToxR construct and a second band for the nonfunctional ToxR* construct. Data were normalized to poly-Leu* Miller Units and corrected for varying protein expression levels using ImageJ (NIH) as previously reported.

Row | Substance | Mean homotypic TMD interaction (ToxR) [1] | Mean TLR2-TMD* heterotypic interaction (ToxR signal) [2]
1 | TLR2*: TLR2 TMD chimera with nonfunctional ToxR* domain (negative phenotype) (GNRASALVSGMCCALFLLILLTGVLCGSLIN; cysteine pairing not given here; also: fused to non-functional ToxR* (S87H) and maltose binding protein, ends not given here) | 0.7829 | 0.1930
2 | TLR1*: TLR1 TMD chimera with nonfunctional ToxR* domain (negative phenotype) (GNRASITLLIVTIVATMLVLAVTVTSLCSYLGSLIN; also: fused to non-functional ToxR* (S87H) and maltose binding protein, ends not given here) | 0.4775 | 0.2198
3 | TLR6*: TLR6 TMD chimera with nonfunctional ToxR* domain (negative phenotype) (GNRASITLLIVTIGATMLVLAVTVTSLCIYLGSLIN; also: fused to non-functional ToxR* (S87H) and maltose binding protein, ends not given here) | 0.5764 | 0.2588

— article PMC3498381, “Isolated Toll-like Receptor Transmembrane Domains Are Capable of Oligomerization” (PLoS ONE, 2012)
